“Also recorded” adds a separate entry of the source. Where two headings read alike, the source gives them in different places.
Experiments:
[1] = target: T1, BCRP (Homo sapiens, UniProt Q9UNQ0); assay: 3H-SN-38 uptake in HT29 parental cell monolayers (Example 6); type: cell-based; details: 25 μM test compound; HT29 parental; ANOVA α=0.05
T1 construct: endogenous in cells; host or cells: HT29 parental and HT29 SN38-resistant colorectal cancer cells
T1 sequence (Q9UNQ0 1-655): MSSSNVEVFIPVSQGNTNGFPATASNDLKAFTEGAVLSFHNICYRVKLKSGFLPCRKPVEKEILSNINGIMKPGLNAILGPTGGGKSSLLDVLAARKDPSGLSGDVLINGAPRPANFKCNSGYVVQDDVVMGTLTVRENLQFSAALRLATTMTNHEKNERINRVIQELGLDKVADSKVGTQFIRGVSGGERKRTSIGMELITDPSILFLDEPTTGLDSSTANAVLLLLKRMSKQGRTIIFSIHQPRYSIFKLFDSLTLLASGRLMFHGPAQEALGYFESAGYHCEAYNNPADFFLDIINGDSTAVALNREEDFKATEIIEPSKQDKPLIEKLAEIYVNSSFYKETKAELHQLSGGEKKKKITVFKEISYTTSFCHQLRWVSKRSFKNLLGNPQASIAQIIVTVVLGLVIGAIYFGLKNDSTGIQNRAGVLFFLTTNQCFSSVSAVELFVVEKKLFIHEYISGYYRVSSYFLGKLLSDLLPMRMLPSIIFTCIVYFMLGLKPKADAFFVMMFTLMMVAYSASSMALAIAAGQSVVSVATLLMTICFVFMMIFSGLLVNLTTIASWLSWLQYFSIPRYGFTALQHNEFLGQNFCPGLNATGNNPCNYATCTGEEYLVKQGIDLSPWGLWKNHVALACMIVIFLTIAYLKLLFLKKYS
Description: (§1) All treatments were investigated in three technical replicates (N=3). On the day of experimentation, the culture media was exchanged with 100 μL transport buffer (HBSS, 0.05% BSA, 10 mM HEPES, pH 7.4) and cells were incubated for 15 minutes at 37° C.
(§2) Subsequently, the blank transport buffer was exchanged with 50 μL transport buffer containing the different compounds (in 2x of the final concentration) to be tested and incubated for 15 minutes at 37° C. The uptake experiment was started by adding 50 μL of ^3H-SN38 at a concentration of 2 μCi/mL to all wells (the resulting concentration of ^3H-SN38 during the experiment was 1 μCi/mL). The uptake experiment was stopped after 15 minutes of incubation at 37° C. by removing the transport buffer from all wells.
(§3) The cell monolayers were subsequently washed twice by adding/removing ice-cold transport buffer twice and finally the cell monolayers were lysed by incubation in 100 μl of 0.1% TritonX-100 for 15 minutes at ambient temperature. Cell lysates were transferred to scintillation vials containing 2 mL of scintillation fluid (Ultima Gold, PerkinElmer). Each well was washed with 2×100 μL purified water (milliQ), which was also transferred to respective scintillation vials.

[2] = target: T1, BCRP; assay: 3H-SN-38 uptake in HT29 SN-38 resistant cell monolayers (Example 6); type: cell-based; details: 25 μM test compound, HT29 SN-38 resistant, ANOVA α=0.05
Description: as §1, §2, §3

[3] = Irinotecan (Camptosar) Norm 125 mg/m2, NO SCO-101 (n = 99), literature value; cited from earlier work
[4] = SN-38 and irinotecan PK in patients with 100 or 150 mg SCO-101 and FOLFIRI versus literature (Example 7); details: for AUC Mean (SD) / Cmax Mean (SD): Irinotecan (FOLFIRI) Norm 125 mg/m2, add-on 150 mg SCO-101 (n = 10)
[5] = SN-38 PK profile and tolerability in metastatic colorectal cancer patients treated with SCO-101 and FOLFIRI (Example 2); type: in vivo, human
Description: Patients with metastatic colorectal cancer were included in a study and treated with a combination of SCO-101 and FOLFIRI (combination of irinotecan, 5-FU and leucovorin) in 14 day treatment cycles. Patients received varying doses of Irinotecan between 50% and 80% of the recommended dose of Irinotecan (180 mg/m^2) according to their individual tolerability, which is standard practise. On days 1, 2, 3, 4, 5 and 6 in each treatment cycle, patients received one fixed daily dose of 150 mg SCO-101 taken in the morning at least 30 minutes before ingestion of food. On day 5 to 7, patients received FOLFIRI as specified for Colorectal cancer combination regimen 2.
Blood plasma samples were analysed for concentrations of SCO-101, irinotecan and SN-38 using Liquid Chromatography with Tandem Mass Spectrometric Detection (LC-MS/MS) bioanalytical method calibrated and validated in the rant 300 to 90.000 ng/ml. The method and system, including validation were according to industry standard. Data were analysed using commercially available software such as Win-Non-Lin (available from Certara inc.)
A trial was setup to address the safety, tolerability, and efficacy of SCO-101 given orally for 6 days followed by FOLFIRI at varying doses from day 5 to 7, in a biweekly schedule, in patients with metastatic colorectal cancer who have formerly been treated with FOLFIRI and afterwards progressed. The first part of the study was a dose-finding study, where the impact of SCO-101 on the pharmacokinetics (PK) of SN-38 was studied.
12 patients from the dose-finding part of the study received 150 mg SCO-101 for 6 days and […] of the recommended dose of FOLFIRI. 6 of the patients had RAS wildtype tumors and these patients were subjected to further analysis.
Blood for pharmacokinetic analysis was sampled from the patients were taken at 1, 2, 4, 8, 24, 48, and 96 hours after treatment with FOLFIRI and SCO-101.

[6] = FIG. 1A, cited from earlier work
[7] = SN-38, 90 mg/m2 irinotecan + SCO-101 vs 180 mg/m2 standard

Row | SMILES | Uptake of SN-38 relative to blank HBSS transport buffer control [1] | AUC Mean (SD) [4] | Cmax Mean (SD) [4] | AUC Mean (SD) [3] | Cmax Mean (SD) [3] | Uptake of SN-38 relative to blank HBSS transport buffer control [2] | other results
1 | Nc1ncnc2n[nH]c(Nc3ccc(F)cc3)c12 [CGP57380] | significant increase | – | – | – | – | – | Uptake of SN-38 relative to blank HBSS transport buffer control ([2]; listed as CGP5738): not different
2 | CCc1c2c(nc3ccc(OC(=O)N4CCC(N5CCCCC5)CC4)cc13)-c1cc3c(c(=O)n1C2)COC(=O)[C@]3(O)CC [Irinotecan] | – | 12565 ng·h/mL | 1457 ng/mL | 10529 ng·h/mL | 1492 ng/mL | – | –
3 | CCc1c2c(nc3ccc(O)cc13)-c1cc3c(c(=O)n1C2)COC(=O)[C@]3(O)CC [SN-38] | – | 2088 ng·h/mL | 86 ng/mL | 267 ng·h/mL | 27.8 ng/mL | – | Fold increase (study vs Standard) of AUC_0-24 [5, 7]: 3.7; Fold increase (study vs Standard) of Cmax [5, 7]: 1.5; Fold increase (study vs Standard) of T½ [5, 7]: 1.6; half-life ([5]; human, plasma, intravenous, SN-38 study: 150 mg SCO-101 + FOLFIRI, normalized to irinotecan 90 mg/m2, day 5, read-out: T½ hours (SD) (converted)): 19 h; AUC(0-t) ([5]; human, plasma, intravenous, SN-38 study: 150 mg SCO-101 + FOLFIRI, normalized to irinotecan 90 mg/m2, read-out: AUC_0-24 h*ng/ml (SD)): 1420 ng·h/mL; SN-38 plasma Cmax ([6]; conventional irinotecan regime 180 mg/m^2, no SCO-101, public reference data): about 25 ng/ml; Time after which SN-38 plasma concentration becomes therapeutically ineffective ([6]; conventional irinotecan regime 180 mg/m^2): about 24 hours; Fold increase in AUC of SN-38 vs 125 mg/m2 irinotecan administered alone ([4]; 100 mg SCO-101): approximately 5 fold; Fold increase in AUC of SN-38 vs 125 mg/m2 irinotecan administered alone ([4]; 150 mg SCO-101): ~8 fold

Now from value to compound, other results behind:

Row | Uptake of SN-38 relative to blank HBSS transport buffer control [1] | AUC Mean (SD) [4] | Cmax Mean (SD) [4] | SMILES | AUC Mean (SD) [3] | Cmax Mean (SD) [3] | Uptake of SN-38 relative to blank HBSS transport buffer control [2] | other results
4 | significant increase | – | – | O=C(Nc1cc(C(F)(F)F)ccc1N1CCCCC1)c1ccncc1 [Srpin340] | – | – | significantly increased; also recorded: significant increase | –
5 | significant increase | – | – | Cc1cc(Nc2cc(N)ncn2)c(=O)n2c1C(=O)NC21CCCCC1 [Tomivorsetib] | – | – | significantly increased; also recorded: significant increase | –
